Substitutions are numbered along the chain they refer to. “Also recorded” adds a separate entry of the source.
Columns and labels:
[1] = test system: prostate glands of mice; assay: Prostate weight in treated male mice; type: in vivo; details: 5 times per week for four weeks, BiC 100 mg/kg PO, PP 1 mg/kg IP, or the combination
Procedure: FIG. 7. […] As a positive control, nine mice were treated with castration for four weeks. Prostate glands were harvested and wet weights determined. […] Error bars represent the standard error of the mean (S.E.M.).
Animals were treated 5 times per week for four weeks. At the end of the study period, animals were sacrificed and prostate tissue weighed. After weighing, the tissue was divided in half for pathological and genetic studies. […] (FIG. 7).

[2] = biological target: T1, endogenous AR with a mutation (T877A), LNCaP cells (Homo sapiens, UniProt P10275, T878A); assay: PSA-luciferase reporter assay in LNCaP cells with DHT; type: cell-based; details: for IC50: LNCaP cells, 3 nM DHT
T1 construct: that each express endogenous AR; endogenous in cells; host or cells: LNCaP
T1 sequence (P10275 1-920 T878A): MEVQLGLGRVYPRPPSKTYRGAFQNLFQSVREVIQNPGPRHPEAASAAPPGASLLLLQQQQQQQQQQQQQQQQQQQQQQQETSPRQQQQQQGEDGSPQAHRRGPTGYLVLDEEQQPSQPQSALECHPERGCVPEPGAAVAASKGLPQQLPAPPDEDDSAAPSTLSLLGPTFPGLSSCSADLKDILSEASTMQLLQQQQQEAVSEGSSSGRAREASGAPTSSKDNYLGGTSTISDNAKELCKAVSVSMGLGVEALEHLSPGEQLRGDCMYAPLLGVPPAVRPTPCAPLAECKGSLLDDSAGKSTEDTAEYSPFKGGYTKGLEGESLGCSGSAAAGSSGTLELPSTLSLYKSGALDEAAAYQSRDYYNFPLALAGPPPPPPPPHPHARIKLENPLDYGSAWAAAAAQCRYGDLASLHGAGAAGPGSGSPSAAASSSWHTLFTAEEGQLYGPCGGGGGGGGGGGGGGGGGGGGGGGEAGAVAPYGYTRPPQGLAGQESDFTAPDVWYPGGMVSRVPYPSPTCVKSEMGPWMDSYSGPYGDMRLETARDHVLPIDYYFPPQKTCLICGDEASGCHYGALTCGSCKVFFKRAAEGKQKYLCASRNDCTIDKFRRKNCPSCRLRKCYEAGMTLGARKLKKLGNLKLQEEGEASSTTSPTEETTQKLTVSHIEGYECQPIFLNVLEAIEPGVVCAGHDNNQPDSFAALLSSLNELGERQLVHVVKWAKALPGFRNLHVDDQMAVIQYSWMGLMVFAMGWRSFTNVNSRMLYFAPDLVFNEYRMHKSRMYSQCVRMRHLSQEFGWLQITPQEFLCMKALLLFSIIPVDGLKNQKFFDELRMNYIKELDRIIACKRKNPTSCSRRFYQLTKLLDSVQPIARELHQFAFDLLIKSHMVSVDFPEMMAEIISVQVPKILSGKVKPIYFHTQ
Procedure: (§1) Cells were transfected with two reporter plasmids, a PSA-luciferase construct (androgen responsive), and an SV40-renilla luciferase construct as an internal control. The following day, the cells were split and drugs added in the presence of 3 nM DHT. Luciferase production was measured the following day (Dual luciferase assay kit, Promega).
(§2) Synergism can be defined as a combination index of less than one, using the non-exclusive assumption described by Chou et al. (Chou, T. C. and P. Talalay, Quantitative analysis of dose-effect relationships: the combined effects of multiple drugs or enzyme inhibitors. Adv Enzyme Regul, 1984. 22: p. 27-55).

[3] = test system: LNCaP cells; assay: Cell proliferation (DNA content, DAPI), LNCaP; type: cell-based, human; details: 3 nM DHT, seven days, PP 100 nM, HH 100 nM, BiC 1 μM
Excerpt: (§3) LN-AR cells were created by retroviral infection of a high-expressing AR vector into LNCaP cells, and proliferate independent of androgen in cell culture, unlike their parental line (Chen, C. D., et al., Molecular determinants of resistance to antiandrogen therapy. Nat Med, 2004. 10(1): p. 33-9). HEK293 cells were used as a control. Cells were transferred to charcoal-stripped media two days before they were split and plated in quadruplicate at a density of approximately 20,000 cells/well in 48-well plates. […] Media were changed every day, using a single preparation to ensure consistent compound concentrations. Proliferation was determined by measuring the DNA content of the cells in each well. Each day, the cells in four wells were fixed in 100% cold methanol, followed by staining for 5 min at RT with 0.2 ng/mL 4′,6-diamidino-2-phenylindole (DAPI) in PBS. The cells were washed once in PBS, then read on a fluorescence plate reader using 365/439 excitation/emission wavelengths. LAPC4 and LNCaP cells proliferated to a much greater degree in the presence of DHT, while LN-AR cells proliferated in the presence and absence of DHT.

[4] = test system: LAPC4 cells; assay: Cell proliferation (DNA content, DAPI), LAPC4; type: cell-based, human; details: LAPC4, 3 nM DHT, seven days; PP 100 nM, HH 100 nM, BiC 1 μM
Excerpt: as §3

[5] = test system: LN-AR cells; assay: Cell proliferation (DNA content, DAPI), LN-AR; type: cell-based, human; details: seven days, PP 100 nM, HH 100 nM, BiC 1 μM
Excerpt: as §3

[6] = test system: HEK293 cells; assay: Cell proliferation (DNA content, DAPI), HEK293 control; type: cell-based; details: HEK293, seven days; PP 100 nM, HH 100 nM, BiC 1 μM
Excerpt: as §3

[7] = biological target: T2, endogenous wild-type AR, LAPC4 cells (Homo sapiens, UniProt P10275); assay: PSA-luciferase reporter assay in LAPC4 cells with DHT; type: cell-based; details: 3 nM DHT
T2 construct: that each express endogenous AR; endogenous in cells; host or cells: LAPC4
T2 sequence (P10275 1-920): T1 sequence (P10275 1-920 T878A) with A878T
Procedure: as §1, §2

[8] = test system: endogenous AR-regulated gene expression, LNCaP cells; assay: qRT-PCR of androgen-responsive genes in LNCaP cells; type: cell-based, human; details: No DHT = 1, 3 nM DHT alone or with 1 uM BIC, 100 nM PP or 100 nM HH
Procedure: (§4) LAPC4 and LNCaP cells were grown in the presence or absence of 3 nM DHT in charcoal-stripped media, with or without the inhibitors. RNA was harvested using an RNAeasy kit (Qiagen) and reverse transcribed (MMLV-RT, Invitrogen). Real-time PCR was carried out on a 7300 Real Time PCR System (Applied Biosystems) using SYBR green as the detecting dye and Rox as the reference dye. The androgen responsive genes kalikrein 3, or PSA (KLK3) [Cleutjens, K. B., et al., Two androgen response regions cooperate in steroid hormone regulated activity of the prostate-specific antigen promoter. J Biol Chem, 1996. 271(11): p. 6379-88; Nelson, P. S., et al., The program of androgen-responsive genes in neoplastic prostate epithelium. Proc Natl Acad Sci USA, 2002. 99(18): p. 11890-5), metalloproteinase 16 (MMP16) (Nelson, P. S., et al., The program of androgen-responsive genes in neoplastic prostate epithelium. Proc Natl Acad Sci USA, 2002. 99(18): p. 11890-5), transmembrane protease serine 2 (TMPRSS2) (Nelson, P. S., et al., The program of androgen-responsive genes in neoplastic prostate epithelium. Proc Natl Acad Sci USA, 2002. 99(18): p. 11890-5; […] Vaarala, M. H., et al., Expression of transmembrane serine protease TMPRSS2 in mouse and human tissues. J Pathol, 2001. 193(1): p. 134-40), FK506-binding immunophilin 51 (FKBP51) (Nelson, P. S., et al., The program of androgen-responsive genes in neoplastic prostate epithelium. Proc Natl Acad Sci USA, 2002. 99(18): p. 11890-5; Amler, L. C., et al., Dysregulated expression of androgen-responsive and nonresponsive genes in the androgen-independent prostate cancer xenograft model CWR22-R1. Cancer Res, 2000. 60(21): p. 6134-41; Velasco, A. M., et al., Identification and validation of novel androgen-regulated genes in prostate cancer. Endocrinology, 2004. 145(8): p. 3913-24; Magee, J. A., et al., Direct, androgen receptor-mediated regulation of the FKBP5 gene via a distal enhancer element. Endocrinology, 2006. 147(1): p. 590-8), G-protein coupled receptor RDC1 homolog, or chemokine orphan receptor 1 (RDC-1) (Nelson, P. S., et al., The program of androgen-responsive genes in neoplastic prostate epithelium. Proc Natl Acad Sci USA, 2002. 99(18): p. 11890-5), NK homeobox family member 3 (Nk×3.1) (Nelson, P. S., et al., The program of androgen-responsive genes in neoplastic prostate epithelium. Proc Natl Acad Sci USA, 2002. 99(18): p. 11890-5; Bieberich, C. J., et al., Prostate-specific and androgen-dependent expression of a novel homeobox gene. J Biol Chem, 1996. 271(50): p. 31779-82; […]) were all normalized to the transcription of the housekeeping ribosomal gene (RPL19). All samples were done in triplicate and separately normalized.

[9] = test system: endogenous AR-regulated gene expression, LAPC4 cells; assay: qRT-PCR of androgen-responsive genes in LAPC4 cells; type: cell-based, human; details: No DHT = 1, 3 nM DHT alone or with 1 uM BIC, 100 nM PP or 100 nM HH
Procedure: as §4

CC(O)(CS(=O)(=O)c1ccc(F)cc1)C(=O)Nc1ccc(C#N)c(C(F)(F)F)c1 (stereo not drawn) [BiC, bicalutamide]
Reduction of prostate weight [1]: 35%

CC(C)(O)C(=O)Nc1ccc([N+](=O)[O-])c(C(F)(F)F)c1 [OH-F, hydroxy-flutamide, reference compound]
Mode of antagonism: effect on DHT dose-response of PSA-luciferase ([2]; LNCaP, DHT titrated, moderate dose of each inhibitor): DHT overcame the inhibitory effect; also recorded: consistent with a competitive antagonist

Harman
IC50 [2]: 380 nM

Cc1cc(/C=C/c2ccc3cc(N(C)C)ccc3[n+]2C)c(C)n1-c1ccccc1 [PP, pyrvinium pamoate]
Inhibition of cell growth [3]: able to inhibit the growth of all four cell lines; also recorded: exhibited growth-inhibitory properties
Inhibition of cell growth [4]: able to inhibit the growth of all four cell lines
Inhibition of androgen-independent cell growth [5]: able to inhibit the growth of all four cell lines; also recorded: blocked growth
Non-specific growth inhibition of control cells [6]: Neither compound exhibited non-specific growth inhibition
Reduction of prostate weight [1]: did not produce a statistically significant effect; also recorded: did not significantly reduce prostate size

COc1cc2ccc(=O)oc2cc1O [Scopoletin]
IC50 [2]: 604000 nM
IC50 [7]: 1380 nM

COc1ccc2c3c([nH]c2c1)C(C)=NCC3 [Harmaline]
IC50 [2]: 1190 nM

C[C@]12CCC(=O)C[C@@H]1CC[C@@H]1[C@@H]2CC[C@]2(C)[C@@H](O)CC[C@@H]12 [DHT, dihydrotestosterone]
FKBP51 transcription (normalized to RPL19) [8]: 2.15
KLK3 transcription (normalized to RPL19) [8]: 1.89
MMP16 transcription (normalized to RPL19), androgen-repressed gene [8]: 0.61
Nkx3.1 transcription (normalized to RPL19) [8]: 2.00
RDC1 transcription (normalized to RPL19), androgen-repressed gene [8]: 0.66
TMPRSS2 transcription (normalized to RPL19) [8]: 3.70
FKBP51 transcription (normalized to RPL19) [9]: 21.4
KLK3 transcription (normalized to RPL19) [9]: 1.97
MMP16 transcription (normalized to RPL19), androgen-repressed gene [9]: 0.71
Nkx3.1 transcription (normalized to RPL19) [9]: 1.08
RDC1 transcription (normalized to RPL19), androgen-repressed gene [9]: 0.63
TMPRSS2 transcription (normalized to RPL19) [9]: 1.13

COc1ccc2c(c1)[nH]c1c(C)nccc12 [Harmine]
IC50 [2]: 1560 nM
IC50 [7]: 80 nM

O=c1ccc2cc(O[C@@H]3O[C@H](CO)[C@@H](O)[C@H](O)[C@H]3O)c(O)cc2o1 [Esculin]
IC50 [2]: 62200 nM
IC50 [7]: 831 nM
